Laboratory results: ChEMBL document CHEMBL1152001 (Bioorg Med Chem Lett, 1993)
pIC50: −log10 of the molar value. Non-standard residues stand in square brackets, D forms with d. Residues, ends and D or L forms follow the SMILES beside them. pGlu = O=C1CC[C@@H](C(=O)O)N1

Biological target: Substance-P receptor (Rattus norvegicus, UniProt P14600)
Test: Tested for inhibition of tachykinin 1 (NK1) receptor in rat brain synaptosomal membranes using [125I]BH-SP as radioligand
Assay type: cell membranes, Membrane

Substance-P receptor, sequence (P14600 whole entry): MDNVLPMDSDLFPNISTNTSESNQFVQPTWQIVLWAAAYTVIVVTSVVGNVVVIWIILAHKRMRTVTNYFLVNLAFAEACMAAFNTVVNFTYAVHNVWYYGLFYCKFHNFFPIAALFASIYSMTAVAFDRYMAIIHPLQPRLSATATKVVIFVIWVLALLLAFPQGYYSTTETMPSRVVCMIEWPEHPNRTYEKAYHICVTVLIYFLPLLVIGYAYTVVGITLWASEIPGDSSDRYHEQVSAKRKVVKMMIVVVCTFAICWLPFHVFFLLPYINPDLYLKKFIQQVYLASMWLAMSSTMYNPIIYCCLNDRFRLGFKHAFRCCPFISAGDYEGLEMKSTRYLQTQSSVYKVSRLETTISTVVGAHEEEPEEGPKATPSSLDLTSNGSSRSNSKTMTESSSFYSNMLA

pIC50 | SMILES
8.64 | CSCC[C@H](NC(=O)[C@H](CC(C)C)NC(=O)CNC(=O)[C@H](Cc1ccc(O)cc1)NC(=O)[C@H](Cc1ccccc1)NC(=O)[C@H](CCCCN)NC(=O)[C@H](CC(N)=O)NC(=O)[C@@H]1CCCN1C(=O)[C@H](CC(=O)O)NC(=O)[C@H](C)NC(=O)[C@@H]1CCC(=O)N1)C(N)=O ([pGlu]ADPNKFYGLM-NH2)
7.51 | CC[C@H](C)[C@H](NC(=O)[C@H](Cc1ccccc1)NC(=O)[C@H](C)NC(=O)[C@H](CC(=O)O)NC(=O)[C@H](CCCCN)NC(=O)[C@H](CO)NC(=O)[C@@H]1CCCN1C(=O)[C@@H]1CCC(=O)N1)C(=O)NCC(=O)N[C@@H](CC(C)C)C(=O)N[C@@H](CCSC)C(N)=O ([pGlu]PSKDAFIGLM-NH2)
7.12 | CSCC[C@H](NC(=O)[C@H](CC(C)C)NC(=O)CNC(=O)[C@@H](NC(=O)[C@H](Cc1ccccc1)NC(=O)[C@H](CCC(N)=O)NC(=O)[C@H](CC(=O)O)NC(=O)[C@H](CO)NC(=O)[C@H](CCCCN)NC(=O)[C@@H]1CCCN1C(=O)[C@@H](NC(=O)[C@@H](N)CC(=O)O)C(C)C)C(C)C)C(N)=O [KASSININ]
6.06 | CSCC[C@H](NC(=O)[C@H](CC(C)C)NC(=O)CNC(=O)[C@@H](NC(=O)[C@H](Cc1ccccc1)NC(=O)[C@H](Cc1ccccc1)NC(=O)[C@H](CC(=O)O)NC(=O)[C@H](Cc1c[nH]cn1)NC(=O)[C@H](CCSC)NC(=O)[C@@H](N)CC(=O)O)C(C)C)C(N)=O [NEUROKININ B]
